Laboratory results: ChEMBL document CHEMBL1201862, “PubChem BioAssay data set” (2004)
The source made the active and inactive calls.

How the values were obtained:
[1] = viability of uninfected HEp-2 cells – cell-based, HTS, cytotoxicity control for RSV inhibitor project, dose response (AID 2410); assay type: functional; conditions: human respiratory syncytial virus
[2] = Luminescence Cell-Based Dose Confirmation HTS to Identify Activators of 5'UTR Stem-Loop Driven Alpha-Synuclein mRNA Translation in H4 Neuroglioblastoma Cells. [Related pubchem assays: 1829 (Project Summary), 1814 (Primary HTS)]; assay type: functional
H4 = test: Luminescence Cell-Based Dose Response HTS to Identify Activators of 5'UTR Stem-Loop Driven Prion Protein mRNA Translation in H4 Neuroglioblastoma Cells. [Related pubchem assays: 1829 (Project Summary), 1814 (Primary HTS)]; assay type: functional; conditions: Homo sapiens
[3] = Luminescence Cell-Based Dose Response HTS to Identify Activators of Luciferase Translation or Activity in H4 […] Cells. [Related pubchem assays: 1829 (Project Summary), 1814 (Primary HTS)]; assay type: functional
Fatty acid synthase [4] = target: T1, Fatty acid synthase (Homo sapiens, UniProt P49327); test: inhibition of human FAS-TE enzyme activity – biochemical, endpoint fluorescence intensity, uHTS hits, dose response (AID 624327); assay type: functional;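 note: fluorescence from hydrolysis of an O-methyl fluorescein acyl ester substrate by the enzyme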
T1 sequence (P49327 whole entry): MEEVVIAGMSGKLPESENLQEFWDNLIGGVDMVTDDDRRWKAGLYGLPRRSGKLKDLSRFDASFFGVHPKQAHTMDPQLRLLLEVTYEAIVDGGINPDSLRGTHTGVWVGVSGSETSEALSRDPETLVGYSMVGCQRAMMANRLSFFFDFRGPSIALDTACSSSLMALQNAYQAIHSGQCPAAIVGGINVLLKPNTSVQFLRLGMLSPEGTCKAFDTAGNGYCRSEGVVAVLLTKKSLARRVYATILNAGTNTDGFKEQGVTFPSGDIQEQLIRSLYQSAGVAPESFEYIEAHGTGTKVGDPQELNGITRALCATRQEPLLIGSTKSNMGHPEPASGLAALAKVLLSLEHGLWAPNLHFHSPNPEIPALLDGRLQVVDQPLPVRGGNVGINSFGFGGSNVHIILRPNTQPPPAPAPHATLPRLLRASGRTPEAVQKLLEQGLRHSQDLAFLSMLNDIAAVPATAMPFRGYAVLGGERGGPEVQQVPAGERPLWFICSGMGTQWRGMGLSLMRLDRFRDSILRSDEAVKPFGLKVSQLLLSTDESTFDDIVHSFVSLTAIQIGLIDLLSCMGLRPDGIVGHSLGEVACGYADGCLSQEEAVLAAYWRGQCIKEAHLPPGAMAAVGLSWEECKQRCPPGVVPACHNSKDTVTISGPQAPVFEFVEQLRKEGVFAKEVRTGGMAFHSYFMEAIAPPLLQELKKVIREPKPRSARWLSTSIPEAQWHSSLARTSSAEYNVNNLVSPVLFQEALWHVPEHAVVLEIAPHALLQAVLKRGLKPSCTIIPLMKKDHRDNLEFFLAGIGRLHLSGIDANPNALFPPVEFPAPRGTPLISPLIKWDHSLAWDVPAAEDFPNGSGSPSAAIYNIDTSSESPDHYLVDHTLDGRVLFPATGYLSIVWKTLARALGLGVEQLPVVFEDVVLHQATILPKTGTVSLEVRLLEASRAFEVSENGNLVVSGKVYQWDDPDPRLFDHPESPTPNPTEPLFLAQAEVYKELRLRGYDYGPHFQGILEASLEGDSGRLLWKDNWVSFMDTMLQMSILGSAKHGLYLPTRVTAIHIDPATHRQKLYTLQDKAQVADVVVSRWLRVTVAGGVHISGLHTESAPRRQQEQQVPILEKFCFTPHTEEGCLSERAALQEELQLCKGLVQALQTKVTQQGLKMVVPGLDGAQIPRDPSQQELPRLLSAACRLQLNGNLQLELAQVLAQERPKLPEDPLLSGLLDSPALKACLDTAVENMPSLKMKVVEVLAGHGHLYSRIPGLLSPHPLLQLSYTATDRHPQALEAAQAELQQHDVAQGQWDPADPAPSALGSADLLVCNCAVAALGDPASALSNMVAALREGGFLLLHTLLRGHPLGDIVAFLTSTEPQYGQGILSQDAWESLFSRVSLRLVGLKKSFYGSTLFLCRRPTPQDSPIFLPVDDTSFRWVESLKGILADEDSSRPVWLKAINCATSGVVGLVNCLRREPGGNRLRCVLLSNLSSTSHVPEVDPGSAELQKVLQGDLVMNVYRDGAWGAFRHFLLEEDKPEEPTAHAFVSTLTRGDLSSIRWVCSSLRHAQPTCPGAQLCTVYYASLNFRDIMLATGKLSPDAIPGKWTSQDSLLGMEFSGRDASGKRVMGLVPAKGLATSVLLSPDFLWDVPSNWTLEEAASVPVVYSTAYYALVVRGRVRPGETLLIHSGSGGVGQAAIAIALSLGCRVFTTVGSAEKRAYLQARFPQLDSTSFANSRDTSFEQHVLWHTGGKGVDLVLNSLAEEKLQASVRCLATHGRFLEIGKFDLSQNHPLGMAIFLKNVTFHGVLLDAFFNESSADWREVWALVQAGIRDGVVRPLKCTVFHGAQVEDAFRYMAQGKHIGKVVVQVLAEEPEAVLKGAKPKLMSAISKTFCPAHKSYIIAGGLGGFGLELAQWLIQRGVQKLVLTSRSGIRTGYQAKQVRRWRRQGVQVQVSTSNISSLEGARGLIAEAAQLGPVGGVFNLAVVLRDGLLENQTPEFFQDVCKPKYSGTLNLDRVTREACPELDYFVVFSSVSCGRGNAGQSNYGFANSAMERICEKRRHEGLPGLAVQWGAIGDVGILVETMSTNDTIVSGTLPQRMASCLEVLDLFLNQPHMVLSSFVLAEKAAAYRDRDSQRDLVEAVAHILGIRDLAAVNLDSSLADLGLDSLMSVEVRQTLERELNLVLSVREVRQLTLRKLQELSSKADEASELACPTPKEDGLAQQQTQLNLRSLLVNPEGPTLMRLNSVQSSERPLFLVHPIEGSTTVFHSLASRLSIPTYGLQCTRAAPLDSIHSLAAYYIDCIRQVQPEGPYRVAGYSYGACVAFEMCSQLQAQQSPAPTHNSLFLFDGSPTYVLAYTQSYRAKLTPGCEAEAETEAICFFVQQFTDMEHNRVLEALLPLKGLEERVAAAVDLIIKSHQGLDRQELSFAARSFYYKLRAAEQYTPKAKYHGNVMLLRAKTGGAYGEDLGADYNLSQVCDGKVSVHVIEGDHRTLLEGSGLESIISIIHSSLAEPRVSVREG

Fatty acid synthase [5] = target: T1, Fatty acid synthase; test: inhibition of human FAS-TE enzyme activity – biochemical, kinetic fluorescence intensity, dose response (AID 624326); assay type: functional;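 note: rate of fluorescence rise from hydrolysis of a fluorogenic O-methyl fluorescein ester substrate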
[6] = target: T2, Corticotropin-releasing factor receptor 2/Corticotropin-releasing factor-binding protein (Homo sapiens, UniProt P24387+Q13324); test: activators of CRF receptor 2 with binding protein – uHTS hits, confirmation (AID 602473); assay type: functional; conditions: read-out: EC50_Mean
T2 sequence (Q13324 whole entry): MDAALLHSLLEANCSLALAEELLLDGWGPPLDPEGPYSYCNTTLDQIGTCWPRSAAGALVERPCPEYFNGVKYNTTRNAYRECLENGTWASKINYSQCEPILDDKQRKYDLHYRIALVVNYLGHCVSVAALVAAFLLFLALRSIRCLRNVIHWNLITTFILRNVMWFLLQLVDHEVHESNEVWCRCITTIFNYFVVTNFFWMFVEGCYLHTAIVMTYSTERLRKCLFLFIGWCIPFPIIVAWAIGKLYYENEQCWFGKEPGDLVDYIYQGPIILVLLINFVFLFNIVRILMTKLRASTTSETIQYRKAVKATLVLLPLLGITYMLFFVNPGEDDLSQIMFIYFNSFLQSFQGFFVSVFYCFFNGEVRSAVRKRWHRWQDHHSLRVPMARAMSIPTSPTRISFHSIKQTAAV
T2 sequence (P24387 whole entry): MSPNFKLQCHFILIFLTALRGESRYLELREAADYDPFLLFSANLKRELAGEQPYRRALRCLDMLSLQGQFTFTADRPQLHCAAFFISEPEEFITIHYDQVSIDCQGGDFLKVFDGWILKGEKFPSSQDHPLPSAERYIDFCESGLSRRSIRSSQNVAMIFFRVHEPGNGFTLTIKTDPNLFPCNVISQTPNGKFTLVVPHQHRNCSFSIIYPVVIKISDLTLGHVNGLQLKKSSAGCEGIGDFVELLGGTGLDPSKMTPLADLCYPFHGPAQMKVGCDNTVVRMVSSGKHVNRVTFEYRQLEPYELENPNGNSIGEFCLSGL

[7] = target: T2, Corticotropin-releasing factor receptor 2/Corticotropin-releasing factor-binding protein; test: Dose Response confirmation of uHTS hits for small molecule antagonists of the CRF-binding protein and CRF-R2 receptor complex.; assay type: functional; conditions: read-out: IC50_Mean
Nonstructural protein 1 = Nonstructural protein 1 (Influenza A virus, UniProt Q194T2); assay type: functional, Influenza A virus (A/California/07/2009(H1N1))
Nonstructural protein 1, sequence (Q194T2 whole entry): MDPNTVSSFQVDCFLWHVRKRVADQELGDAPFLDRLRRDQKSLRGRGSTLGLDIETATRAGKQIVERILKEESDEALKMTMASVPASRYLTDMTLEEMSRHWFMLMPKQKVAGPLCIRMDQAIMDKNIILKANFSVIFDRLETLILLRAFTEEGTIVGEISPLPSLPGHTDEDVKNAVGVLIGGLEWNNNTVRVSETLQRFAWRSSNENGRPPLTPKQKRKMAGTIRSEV

[8] = target: T3, Heat shock factor protein 1 (Mus musculus, UniProt P38532); test: decrease of HSF1-responsive luciferase luminescence – cell-based, NIH3T3, dose retest, confirmation (AID 2382); assay type: functional;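 note: NIH3T3 fibroblasts with HSF1-driven luciferase reporter stressed by proteasome inhibitor MG132; luminescence from HSF1-driven luciferase expression after 8 hours of MG132 stress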
T3 sequence (P38532 whole entry): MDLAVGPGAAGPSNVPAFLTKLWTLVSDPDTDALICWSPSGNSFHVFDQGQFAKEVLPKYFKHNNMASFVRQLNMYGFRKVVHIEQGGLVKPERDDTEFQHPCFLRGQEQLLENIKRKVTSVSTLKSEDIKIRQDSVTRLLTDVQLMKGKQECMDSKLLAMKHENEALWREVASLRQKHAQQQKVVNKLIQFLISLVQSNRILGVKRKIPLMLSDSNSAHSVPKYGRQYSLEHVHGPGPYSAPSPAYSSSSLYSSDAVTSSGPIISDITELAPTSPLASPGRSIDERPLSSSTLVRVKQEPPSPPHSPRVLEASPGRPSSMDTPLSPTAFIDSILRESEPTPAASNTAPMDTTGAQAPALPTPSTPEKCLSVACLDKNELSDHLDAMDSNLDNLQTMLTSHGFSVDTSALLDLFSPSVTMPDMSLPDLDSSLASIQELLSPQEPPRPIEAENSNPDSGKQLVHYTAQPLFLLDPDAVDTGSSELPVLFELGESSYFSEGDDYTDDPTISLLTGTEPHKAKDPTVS

Cytochrome P450 2C19 = Cytochrome P450 2C19 (Homo sapiens, UniProt P33261); test: Cytochrome panel assay with activity outcomes. Panel member name: p450-cyp2c19 Compounds with AC50 equal or less than 10 uM are considered active; assay type: functional
Cytochrome P450 2C19, sequence (P33261 whole entry): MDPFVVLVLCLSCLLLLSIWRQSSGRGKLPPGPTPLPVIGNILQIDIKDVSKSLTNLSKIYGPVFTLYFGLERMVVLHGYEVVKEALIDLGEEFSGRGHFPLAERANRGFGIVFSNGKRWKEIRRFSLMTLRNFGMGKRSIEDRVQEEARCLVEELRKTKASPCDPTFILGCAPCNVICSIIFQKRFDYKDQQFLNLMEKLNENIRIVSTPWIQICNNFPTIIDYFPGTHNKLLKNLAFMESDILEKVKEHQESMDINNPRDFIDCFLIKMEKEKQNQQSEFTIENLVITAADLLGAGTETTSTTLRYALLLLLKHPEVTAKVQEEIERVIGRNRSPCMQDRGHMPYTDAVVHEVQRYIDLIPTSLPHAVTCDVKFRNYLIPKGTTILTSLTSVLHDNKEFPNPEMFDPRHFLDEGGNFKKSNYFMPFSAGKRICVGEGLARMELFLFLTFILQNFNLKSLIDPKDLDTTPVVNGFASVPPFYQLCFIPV

Cytochrome P450 1A2 = target: T4, Cytochrome P450 1A2 (Homo sapiens, UniProt P05177);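 note: PubChem cytochrome P450 panel assay, CYP1A2 panel member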
T4 sequence (P05177 whole entry): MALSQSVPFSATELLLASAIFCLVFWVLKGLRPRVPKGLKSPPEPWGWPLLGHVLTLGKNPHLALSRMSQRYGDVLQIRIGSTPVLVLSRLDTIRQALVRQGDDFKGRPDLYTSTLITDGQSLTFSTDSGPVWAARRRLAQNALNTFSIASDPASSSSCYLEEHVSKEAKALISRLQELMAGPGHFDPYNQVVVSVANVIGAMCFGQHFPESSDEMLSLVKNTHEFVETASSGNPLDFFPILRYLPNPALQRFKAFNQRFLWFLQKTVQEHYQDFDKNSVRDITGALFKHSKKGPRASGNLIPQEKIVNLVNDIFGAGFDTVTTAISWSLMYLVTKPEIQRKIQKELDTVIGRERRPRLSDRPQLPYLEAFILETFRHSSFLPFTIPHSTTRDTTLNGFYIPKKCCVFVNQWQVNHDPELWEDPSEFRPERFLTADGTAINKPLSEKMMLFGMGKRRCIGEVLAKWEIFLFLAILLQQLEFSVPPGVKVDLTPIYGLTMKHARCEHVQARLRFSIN

COc1ccc(-c2c(C#Cc3ccccc3)c3ccccc3n2C)cc1
CC50 [1]: 44 µM (active) | EC50 [2]: 19.6 µM (active) | EC50 (H4): 43.1 µM (active) | EC50 [3]: 22.1 µM (active)

O=C(COC(=O)c1cc(F)c(F)cc1Cl)NC1CCCCCC1
IC50 (Fatty acid synthase [4]): 13.1 µM (active) | IC50 (Fatty acid synthase [5]): 6.86 µM (active)

CCc1ccc(NC(=O)CSc2nc(N)c(NC(=O)c3ccc(F)c(F)c3)c(O)n2)cc1
EC50 [6]: > 53 µM (inactive) | IC50 [7]: > 47.1 µM (inactive)

CCCc1cc(O)nc(SCC(=O)N(CCC#N)c2ccc3c(c2)OCCO3)n1
EC50 [6]: > 53 µM (inactive) | IC50 [7]: > 47.1 µM (inactive)

CCCCOc1ccc2c(c1)/C(=C(\C(Cl)=C(Cl)Cl)[N+](=O)[O-])N2
EC50 [6]: 37.9 µM (active) | IC50 [7]: > 47.1 µM (inactive)

Cc1c([N+](=O)[O-])cc(S(=O)(=O)Nc2ccc(-c3ccc(N4CCCC4)nn3)cc2)cc1[N+](=O)[O-]
IC50 (Fatty acid synthase [4]): 0.867 µM (active) | CC50 [1]: > 50 µM (active) | IC50 (Fatty acid synthase [5]): 0.524 µM (active)

Cc1cc(/C(O)=C(/C([S-])=Nc2ccc(F)cc2)[n+]2ccccc2)c(C)n1-c1ccc(F)cc1
EC50 [2]: > 120 µM (not active) | EC50 (H4): 21.1 µM (active) | EC50 [3]: 16.1 µM (active)

CN(C)c1ccc(C=C2C=CC=C2)cc1
IC50 (Nonstructural protein 1): 31.5 µM (active)

CCOc1ccc2[nH]c(SCC3CC3(Cl)Cl)nc2c1 (configuration not stated)
EC50 [2]: 0.506 µM (active) | EC50 (H4): 30.2 µM (active) | EC50 [3]: 29.7 µM (active)

O=C(COC(=O)c1ccccc1-n1cnnn1)c1ccc(F)cc1
EC50 [8]: 50.2 µM (active) | EC50 [2]: 4.44 µM (active) | EC50 (H4): 31.3 µM (active) | EC50 [3]: 7.61 µM (active)

CCn1cc(C(=O)NCc2ccco2)c(=O)c2cc(S(=O)(=O)N3CCC(C)CC3)ccc21
IC50 (Fatty acid synthase [4]): 2.6 µM (active) | IC50 (Fatty acid synthase [5]): 3.21 µM (active)

CC(C)(C)c1ccc(COC(=O)CN2C(=O)NC3(CCCC3)C2=O)cc1
IC50 (Fatty acid synthase [4]): 4.84 µM (active) | IC50 (Fatty acid synthase [5]): 5.17 µM (active)

O=C(CSc1cn(Cc2ccccc2)c2ccccc12)N1CCOCC1
EC50 [2]: 20.9 µM (active) | EC50 (H4): 16.8 µM (active) | EC50 [3]: 19.8 µM (active)

CCNc1ccc(S(=O)(=O)N(C)C)cc1NCC(=O)Nc1ccc(F)c(Cl)c1
IC50 (Fatty acid synthase [4]): 12.4 µM (active) | IC50 (Fatty acid synthase [5]): 18.2 µM (active)

COc1cccc(C=NNC(=O)C[n+]2ccccc2)c1O
IC50 (Nonstructural protein 1): 10.4 µM (active)

CCCCN(C=O)c1c(CC)nc2c(OCc3ccc(Cl)cc3Cl)cccn12
IC50 (Fatty acid synthase [4]): 6.01 µM (active) | IC50 (Fatty acid synthase [5]): 8.19 µM (active)

Cn1c(=O)c2cc3ccc(Cl)cc3nc2n(C)c1=O
EC50 [6]: > 53 µM (inactive) | IC50 [7]: > 47.1 µM (inactive)

Cc1nc(S(=O)(=O)N2CCOCC2)c(C#N)c(C)c1Cl
AC50 (Cytochrome P450 2C19): inconclusive | AC50 (Cytochrome P450 1A2): 1 µM (inconclusive) | EC50 [2]: 10.7 µM (active) | EC50 (H4): > 120 µM (not active) | EC50 [3]: 55.7 µM (active)

C[C@]12CCC(=O)C=C1CC[C@@H]1[C@@H]2[C@@H](O)C[C@]2(C=O)[C@@H](C(=O)CO)CC[C@@H]12 [ALDOSTERONE]
EC50 [2]: > 120 µM (not active) | EC50 (H4): > 120 µM (not active) | EC50 [3]: > 120 µM (not active)

CCOc1ccc(CNC(=O)CCC(=O)N2Cc3cccc(OC)c3Oc3ncccc32)cc1
EC50 [6]: > 53 µM (inactive) | IC50 [7]: > 47.1 µM (inactive)

COc1ccc(/C=C/C(=O)NC(=S)Nc2ccc(S(=O)(=O)Nc3cc(OC)ncn3)cc2)cc1
EC50 [6]: > 53 µM (inactive) | IC50 [7]: > 47.1 µM (inactive)

Cc1cccn2c(=O)c(/C=C(\C#N)C(N)=O)c(N3CCN(c4cccc(Cl)c4)CC3)nc12
IC50 (Nonstructural protein 1): > 100 µM (active)

Cn1sc(NC(=O)c2cccc(Cl)c2)nc1=O
EC50 [2]: 12.8 µM (active) | EC50 (H4): > 120 µM (not active) | EC50 [3]: 7.11 µM (active)

O=C(CN1CC(=O)Oc2ccccc21)OCC(=O)c1ccccc1
IC50 (Nonstructural protein 1): 1.47 µM (active)
